Results reported in article PMC6013488, “A widely-applicable high-throughput cellular thermal shift assay (CETSA) using split Nano Luciferase” (Scientific Reports, 2018).
Structures can show the parent of a compound that is named as a salt. Where two headings read alike, the source gives them in different places.

Molecular target: T1, CDK9/cyclin K (Homo sapiens, UniProt P50750)
T1 construct: purchased Invitrogen (ThermoFisher) PV4335
Test: TR-FRET Lanthascreen Eu Kinase Binding assay
Conditions: for Curve Class: classifies curves by quality of fit, efficacy and number of asymptotes; for Efficacy: difference between highest and lowest activity across concentration range; for Efficacy / Max Resp: in %
Source text: The TR-FRET Lanthascreen Eu Kinase Binding assay for CDK9/cyclin K was purchased from ThermoFisher and performed as per manufacturer instructions.

[1] = concentration at which half maximal activity is observed, 7-point qHTS, read-out: AC50
[2] = AC50, concentration at which half maximal activity is observed, 7-point qHTS
[3] = logarithm of AC50, read-out: Log AC50 (converted)

T1 sequence (P50750 whole entry): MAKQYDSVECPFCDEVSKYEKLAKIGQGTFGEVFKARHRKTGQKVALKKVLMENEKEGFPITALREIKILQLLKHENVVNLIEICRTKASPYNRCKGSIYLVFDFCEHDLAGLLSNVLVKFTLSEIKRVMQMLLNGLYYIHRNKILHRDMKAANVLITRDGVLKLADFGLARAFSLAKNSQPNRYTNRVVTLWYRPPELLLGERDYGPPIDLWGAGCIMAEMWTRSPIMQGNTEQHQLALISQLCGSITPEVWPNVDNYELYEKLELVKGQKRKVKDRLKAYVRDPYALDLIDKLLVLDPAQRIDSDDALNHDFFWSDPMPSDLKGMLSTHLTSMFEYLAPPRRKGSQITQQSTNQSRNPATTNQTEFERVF
T1 sequence (O75909 whole entry partner): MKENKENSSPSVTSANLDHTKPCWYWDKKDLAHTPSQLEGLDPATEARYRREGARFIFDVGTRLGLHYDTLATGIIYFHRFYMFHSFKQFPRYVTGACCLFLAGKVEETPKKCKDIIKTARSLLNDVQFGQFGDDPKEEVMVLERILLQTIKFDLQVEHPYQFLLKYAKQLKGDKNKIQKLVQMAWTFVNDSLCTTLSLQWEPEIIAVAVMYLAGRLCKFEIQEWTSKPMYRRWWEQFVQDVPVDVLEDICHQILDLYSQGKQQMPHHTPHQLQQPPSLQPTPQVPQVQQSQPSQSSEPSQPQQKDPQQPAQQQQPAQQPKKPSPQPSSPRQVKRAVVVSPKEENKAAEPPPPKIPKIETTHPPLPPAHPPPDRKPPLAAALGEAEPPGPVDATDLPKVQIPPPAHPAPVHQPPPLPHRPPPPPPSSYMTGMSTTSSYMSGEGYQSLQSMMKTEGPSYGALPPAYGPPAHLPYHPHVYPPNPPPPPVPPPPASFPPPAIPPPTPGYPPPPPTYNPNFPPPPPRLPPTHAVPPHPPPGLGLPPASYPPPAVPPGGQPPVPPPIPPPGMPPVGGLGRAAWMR

Row | Curve Class | Efficacy | Max Resp | SMILES | AC50 [1] | Log AC50 (M) (logarithm of AC50) | AC50 [2] | AC50 [3]
1 | -1.4 | -58.3 | -64.1 | COc1ccc2c(NC(=O)Nc3cccc(C(F)(F)F)n3)ccnc2c1 [A 1070722] | – | – | – | –
2 | -1.1 | -86.8 | -79.5 | CC(C)n1nc(-c2ccc(NC(=O)Nc3cccc(C(F)(F)F)c3)cc2)c2c(N)ncnc21 [AD57 (hydrochloride)] | – | – | – | –
3 | -1.2 | -79.8 | -85.8 | N#C/C(=C1\Nc2ccccc2S1)c1ccnc(NCCc2cccnc2)n1 [AS601245] | – | – | – | –
4 | 5 | -14.9 | -96.9 | O=C(NC1CCNCC1)c1[nH]ncc1NC(=O)c1c(Cl)cccc1Cl [AT7519] | – | – | – | –
5 | -1.2 | -76.1 | -97.4 | CC(C)Oc1cc(Nc2nc(N[C@@H](C)c3ccc(F)cn3)ncc2Cl)n[nH]1 [AZ 23] | – | – | – | –
6 | -1.3 | -51.7 | -96.5 | CN[C@H]1CCN(C(=O)c2ccc(Nc3ncc(F)c(-c4cnc(C)n4C(C)C)n3)cc2)C1 [AZD-5597] | – | – | – | –
7 | -1.1 | -82.6 | -92.4 | O=C1Cc2c([nH]c3ccc([N+](=O)[O-])cc23)-c2ccccc2N1 [Alsterpaullone] | – | – | – | –
8 | -1.1 | -91.8 | -92.1 | COc1ccc(-c2cc3nccn3c(Nc3ncccc3C(N)=O)n2)cc1OC [BAY 61-3606 (dihydrochloride)] | – | – | – | –
9 | -1.2 | -77.1 | -79.3 | Cc1cc(CN2CCN(c3c(Br)cnc4[nH]c(-c5ccc(N6CCN(C)CC6)cc5)nc34)CC2)no1 [CCT137690] | – | – | – | –
10 | -1.2 | -56.9 | -98.0 | OCCCNc1cc(-c2ccnc(Nc3cccc(Cl)c3)n2)ccn1 [CGP60474] | – | – | – | –
11 | -1.1 | -87.0 | -80.6 | Nc1nc(NCCNc2ncc(-n3ccnc3)c(-c3ccc(Cl)cc3Cl)n2)ccc1[N+](=O)[O-] [CHIR98014] | – | – | 134 nM | –
12 | -1.1 | -83.3 | -91.2 | COCCOc1ccc2c(c1)ncn2-c1ccc2cccc(N3CCC(N)CC3)c2n1 [CP-673451] | 150 nM | – | – | –
13 | -1.1 | -92.0 | -90.5 | Cc1nc(N)sc1-c1ccnc(Nc2ccc(N3CCOCC3)cc2)n1 [CYC-116] | – | – | – | –
14 | -1.1 | -85.8 | -96.7 | N#CCNC(=O)c1ccc(-c2ccnc(Nc3ccc(N4CCOCC4)cc3)n2)cc1 [CYT-387] | – | – | – | –
15 | -1.2 | -57.1 | -99.2 | CC(C)c1nn(-c2c(Cl)cccc2Cl)c2nc(Cc3ccc(OCCO)cc3)[nH]c(=O)c12 [Cdk/Crk Inhibitor] | – | – | – | –
16 | -1.1 | -89.8 | -98.7 | Cc1n[nH]c2ccc(-c3cncc(OC[C@@H](N)Cc4ccccc4)c3)cc12 [Compound A-674563, A-674563] | – | – | – | –
17 | -1.2 | -69.1 | -74.0 | CN(C)CCCn1cc(C2=C(c3c[nH]c4ccccc34)C(=O)NC2=O)c2ccccc21 [GF109203X] | – | – | – | –
18 | -1.1 | -89.8 | -91.2 | O=C1NC(=O)/C(=C/c2ccc3nccc(-c4ccncc4)c3c2)S1 [GSK1059615] | – | – | – | –
19 | -1.2 | -77.0 | -89.0 | O=C(O)c1ccc(-c2c[nH]c3ncc(-c4ccccc4)cc23)cc1C1CCCC1 [GSK-650394] | – | – | – | –
20 | -1.2 | -79.9 | -87.0 | O=C1NC(=O)/C(=C/c2ccc3nccc(-c4ccncc4)c3c2)S1 [GSK-1059615] | – | – | – | –
21 | -1.1 | -99.4 | -92.5 | O=C1Nc2ccc3ncsc3c2/C1=C/Nc1ccc([S+](=O)([O-])Nc2ccccn2)cc1 [GW8510] | – | – | – | –
22 | -1.1 | -85.9 | -78.2 | COc1ccc(-c2oc3ncnc(N)c3c2-c2ccc(NC(=O)Nc3cc(C(F)(F)F)ccc3F)cc2)cc1 [GW768505A] | – | – | – | 631 nM
23 | -1.2 | -75.6 | – | O=C(Nc1nc2ccccc2n1CCN1CCOCC1)c1cccc([N+](=O)[O-])c1 [IRAK-1-4 Inhibitor I] | – | – | – | –
24 | -1.1 | -93.4 | -97.5 | Nc1nc(Nc2ccc(S(N)(=O)=O)cc2)nn1C(=O)c1c(F)cccc1F [JNJ7706621] | – | – | – | –
25 | -1.1 | -86.0 | -91.6 | CN(C)C/C=C/C(=O)Nc1cccc(C(=O)Nc2ccc(Nc3nccc(-c4cccnc4)n3)cc2)c1 [JNK-IN-7] | – | – | – | –
26 | -1.1 | -80.5 | -37.7 | O=C1Cc2c([nH]c3ccc(Br)cc23)-c2ccccc2N1 [Kenpaullone] | 336 nM | – | – | –
27 | -1.1 | -96.3 | -94.5 | COc1ccccc1-c1cc(Nc2cccc(C[S+](N)(=O)[O-])c2)ncn1 [LDC000067] | – | – | – | –

Row | SMILES | Curve Class | Efficacy | Max Resp | AC50 [1] | Log AC50 (M) (logarithm of AC50) | AC50 [2] | AC50 [3]
28 | Nc1n[nH]c(N)c1N=Nc1ccc(O)cc1 (stereo in doubt) [CAY10574] | -1.1 | -84.6 | -95.5 | – | – | – | –
29 | CCCCNc1ncc(C(=O)NCc2ccc(-n3ccnc3)cc2)c(NC2CCC(O)CC2)n1 (stereo in doubt) [UNC2881] | -1.1 | -93.2 | -99.2 | – | – | – | –
30 | O=C1Nc2ccc(F)cc2/C1=C1\Nc2ccccc2\C1=N\O [5 -Fluoroindirubinoxime] | -1.1 | -80.2 | -86.1 | – | – | – | –
31 | Nc1ncnc2c1c(I)cn2[C@@H]1O[C@H](CO)[C@H](O)C1O (stereo partly drawn) [5-Iodotubercidin] | -1.1 | -92.5 | -99.1 | – | – | – | –
32 | O=C(Nc1c[nH]nc1-c1nc2ccc(CN3CCOCC3)cc2[nH]1)NC1CC1 [AT9283] | -1.1 | -93.9 | -97.0 | – | – | – | –
33 | Cc1ncc(-c2ccnc(Nc3ccc(S(C)(=O)=O)cc3)n2)n1C(C)C [AZD5438] | -1.2 | -75.7 | -98.3 | – | – | – | –
34 | CC(=O)N1CCN(C(=O)Cc2ccc(Nc3ncc(F)c(Nc4ccc(C(=O)Nc5ccccc5Cl)cc4)n3)cc2)CC1 [Aurora A inhibitor II] | -1.1 | -82.6 | -83.7 | 947 nM | -6.0 M | – | –
35 | CC(C)c1cnn2c(NCc3ccccc3)cc(N[C@@H](CO)[C@H](O)CO)nc12 [BS194] | -1.1 | -108.2 | -95.8 | – | – | – | –
36 | O=C(NCCCNc1nc(Nc2cccc(NC(=O)N3CCCC3)c2)ncc1I)c1cccs1 [BX-795 hydrochloride] | -1.1 | -99.6 | 5.8 | – | – | – | –
37 | CC1(COc2ccc3c(c2)ncn3-c2ccc3cccc(N4CCC(N)CC4)c3n2)COC1 [CP-868596 (Crenolanib)] | -1.1 | -91.6 | -90.2 | – | – | – | –
38 | COc1ccc(CNc2nc(N(CCO)CCO)nc3c2ncn3C(C)C)cc1 [CVT-313] | -1.1 | -101.1 | -99.9 | 532 nM | – | – | –
39 | O=C(O)c1ccc2c(c1)nc(Nc1cccc(Cl)c1)c1ccncc12 [CX-4945 (sodium salt)] | -1.1 | -98.0 | -93.5 | – | – | – | –
40 | NS(=O)(=O)c1ccc(NN=C2C(=O)Nc3ccc(Br)cc32)cc1 [Cdk2 Inhibitor II] | -1.2 | -67.2 | -64.7 | – | – | – | –
41 | Cc1n[nH]c2ccc(-c3cncc(OC[C@@H](N)Cc4c[nH]c5ccccc45)c3)cc12 [Compound A-443654, A-443654] | -1.1 | -88.0 | -96.6 | – | – | – | –
42 | O=C1Nc2ccc3ncsc3c2/C1=C/c1c[nH]cn1 [Compound C16, C16] | -1.2 | -77.3 | -68.5 | – | – | – | –
43 | CN1CCC(c2c(O)cc(O)c3c(=O)cc(-c4ccccc4Cl)oc23)C1CO (stereo not drawn) [Compound P276-00, P276-00] | -1.2 | -60.7 | -99.0 | – | – | – | –
44 | COc1ccc(F)c(F)c1C(=O)c1cnc(NC2CCN([S+](C)(=O)[O-])CC2)nc1N [Compound R547, R547] | 5 | -13.4 | -94.3 | – | – | – | –
45 | NC(=O)c1ccccc1Nc1ccnc(Nc2cccc(O)c2)n1 [DB07268] | -1.1 | -100.7 | -97.2 | – | – | – | –
46 | CN(C)c1nc2c(Br)c(Br)c(Br)c(Br)c2[nH]1 [DMAT] | -1.1 | -84.2 | -94.6 | – | – | – | –
47 | CNC(=O)c1ccc(Nc2ncc(C(F)(F)F)c(NCc3nccnc3N(C)[S+](C)(=O)[O-])n2)cc1 [Defactinib (VS-6063, PF-04554878)] | -1.1 | -79.8 | -50.3 | – | – | – | –
48 | O=C(Nc1ccnc(NC(=O)C2CC2)c1)c1c(Cl)cccc1Cl [GDC-046] | -1.1 | -83.7 | -94.2 | 33.6 nM | – | – | 31.6 nM
49 | O=C1Nc2ccccc2/C1=C1/Nc2ccccc2/C1=N\OCCC(O)CO (stereo not drawn) [Indirubin_E8] | -1.1 | -83.1 | -81.2 | – | – | – | –
50 | CCOC(=O)c1c(/C(C#N)=C\N)c2ccc(Cl)c(Cl)c2n1C [KH-CB19] | -1.1 | -88.2 | -90.2 | – | – | 336 nM | –
